Legend:
[1] = Volume of hair switches by image analysis after soaking, ironing at 200° C. and washing (Example 1)
Procedure: Dark brown wavy #6 European hair switches were soaked for 30 minutes in solutions of 2% glyceraldehyde at its natural or spontaneous pH.
All switches were combed straight and were dried in drying cabinets. When dry the switches were ironed with 7 passes using straighteners at 200° C.
The switches were subsequently washed after 3 days with base shampoo and combed straight and dried in drying cabinets.
When dry the switches were combed and pictures taken. The volumes of the switches were measured using an image analysis kit.
If the switches are visually straight then the volume of the switches (actually the projection of the volume in mm^2 on to an image plane) is a measure of the straightness benefits of the treatment.

[2] = Volume of hair switches by image analysis after soaking and combing, no heat treatment (Example 3); settings: 30 min soak; for volume of treated hair switches: combed straight, dried; for % benefit: water as control
From the text: Control switches were soaked in water.
When dry the switches were combed straight and pictures taken.

Structure (SMILES)	% benefit after ironing + 1 wash ([1]; 2% glyceraldehyde solution, 30 min soak, 7 iron passes at 200° C., 1 wash, versus control) [%]	% benefit after ironing + 2 washes ([1]; 2% glyceraldehyde solution, 30 min soak, 7 iron passes at 200° C., 2 washes, versus control) [%]	Volume of treated hair switches after ironing + 2 washes ([1]; 2% glyceraldehyde solution, 30 min soak, 7 iron passes at 200° C., 3 day gap between washings) [mm^2]	Volume of treated hair switches after ironing + 1 wash ([1]; 2% glyceraldehyde solution, 30 min soak, 7 iron passes at 200° C., washed after 3 days with base shampoo) [mm^2]	straightness benefit (in words) ([1]; with heat treatment, after washing)	volume of treated hair switches [2] [mm^2]	% benefit [2] [%]
O=CC(O)CO (stereo not drawn) [Glyceraldehyde, glyceraldehyde]	26.4	11.3	11191.17	10927.15	durable straightness benefits	12458	21.6
NCCCC[C@H](N)C(=O)O [2% Lysine, lysine]	–	–	–	–	–	9975	37.2
